Where “and” joins values, the source holds several entries; their conditions need not be identical. Equal values may be shown once.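 Tested at 5 concentrations; 48 h exposure; 96-well plates; endpoints linearly interpolated, else capped at highest concentration. GI50 = concentration required for 50% inhibition of growth. At the TGI there is no net growth.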
Tests used:
Assay in all cases: inhibition of tumour cell growth, NCI panel, 48 h
HCC-2998 colon = test system: HCC-2998 colon
HCT-15 colon = test system: HCT-15 colon
HL-60(TB) leukemia = test system: HL-60(TB) leukemia
HT29 colon = test system: HT29 colon
MOLT-4 leukemia = test system: MOLT-4 leukemia
OVCAR-4 ovarian = test system: OVCAR-4 ovarian
SF-268 CNS = test system: SF-268 CNS
SR leukemia = test system: SR leukemia
UACC-257 melanoma = test system: UACC-257 melanoma
UACC-62 melanoma = test system: UACC-62 melanoma

| SMILES | TGI (HCC-2998 colon) [µM] | TGI (HCT-15 colon) | TGI (HL-60(TB) leukemia) [µM] | TGI (HT29 colon) [µM] | TGI (MOLT-4 leukemia) | TGI (OVCAR-4 ovarian) | TGI (SF-268 CNS) [µM] | TGI (SR leukemia) | TGI (UACC-257 melanoma) [µM] | TGI (UACC-62 melanoma) | GI50 (HCC-2998 colon) [µM] | GI50 (HCT-15 colon) [µM] | GI50 (HL-60(TB) leukemia) [µM] | GI50 (HT29 colon) [µM] | GI50 (MOLT-4 leukemia) [µM] | GI50 (OVCAR-4 ovarian) [µM] | GI50 (SF-268 CNS) [µM] | GI50 (SR leukemia) [µM] | GI50 (UACC-257 melanoma) [µM] | GI50 (UACC-62 melanoma) [µM] |
| --- | --- | --- | --- | --- | --- | --- | --- | --- | --- | --- | --- | --- | --- | --- | --- | --- | --- | --- | --- | --- |
| Cc1cccc(C)c1NC(=O)C(=O)Nn1c(NN)nc2ccccc2c1=O | > 100 | > 100 µM | > 100 | > 100 | > 100 µM | > 100 µM | > 100 | > 100 µM | > 100 | > 100 µM |  |  |  |  |  |  |  |  |  |  |
| COc1cccc(NC(=O)/C(Cc2nc3ccccc3nc2C)=N/NC(=O)C[n+]2ccccc2)c1 | > 100 | > 100 µM | > 100 | > 100 | > 100 µM | > 100 µM | > 100 | > 100 µM | > 100 | > 100 µM |  |  |  |  |  |  |  |  |  |  |
| CN(C)c1ccc(/C=C/c2cc[n+](C)c(/C=C/c3ccc(N(C)C)cc3)c2)cc1 | 1.97 | 9.74 µM | 0.873 | 2.65 | 3.53 µM | 1.01 µM | 6.26 | 2.45 µM | 0.853 | 1.68 µM | 0.381 | 0.904 | 0.19 | 0.274 | 0.388 | 0.225 | 0.399 | 0.309 | 0.275 | 0.357 |
| Cn1cc2ccccc2c1-c1nc(F)nc(OCC(=O)[C@H]2CCC3[C@@H]4CCC5=CC(=O)CC[C@]5(C)C4[C@@H](O)C[C@@]32C)n1 (stereo not given in full) | 48.4 | 20.7 µM | 25.3 | 42.7 | 54.3 µM | 29.6 µM | 33.3 | 12.8 µM | 37.3 | 36.7 µM |  |  |  |  |  |  |  |  |  |  |
| C=C(c1ccccc1)[C@@]1(O)CC[C@@H]1N(CC#N)Cc1ccccc1 | 44.3 | 34.6 µM | > 62.1 | 40 | 69.2 µM | 29.1 µM | > 83.9 | > 69.9 µM | 34 | 32.1 µM |  |  |  |  |  |  |  |  |  |  |
| COc1cc2c(cc1OC)C13CCN4CC5CCOC6CC(=O)N2C1C6C5CC43 (stereo not given) | > 100 | > 100 µM | > 100 | > 100 | > 100 µM | > 100 µM | > 100 | > 100 µM | > 100 | > 100 µM |  |  |  |  |  |  |  |  |  |  |
| C=CCC1C(=O)CC2(C)CC(=O)C(CC=C)C12C (stereo not given) | > 100 | > 100 µM | > 100 | > 100 | > 100 µM | > 100 µM | > 100 | > 100 µM | > 100 | > 100 µM |  |  |  |  |  |  |  |  |  |  |
| COc1ccc(-c2ccc(-c3ccc(C(=N)N)o3)o2)cc1 | 3.23 | 4.72 µM | 3.16 | 2.82 | 4.3 µM | 12.2 µM | 7.22 | 2.79 µM | 24.7 | 3.05 µM | 1.58 | 0.675 | 1.23 | 0.484 | 1.2 | 2.22 | 2.04 | 0.417 | 11.1 | 1.29 |
| NCCCNCCCCNC(=O)C(O)NC(=O)CCCCCCN=C(N)N (stereo not given) | > 4260 | 750 µM and > 5000 µM | > 4090 | > 5000 | 750 µM and > 4510 µM | 619 µM and > 2810 µM | > 5000 | 750 µM and > 4240 µM | > 5000 | 750 µM and > 5000 µM | 2720 | > 2640 | 2500 | > 3580 | 1620 | 2490 | 3070 | 530 | > 4100 | > 2860 |
| COc1cc(-c2nc(SCCC(C)C)nc(Nc3ccc(S(N)(=O)=O)cc3)c2C#N)cc(OC)c1OC | > 100 | > 100 µM | 5.86 | 5.13 | > 100 µM | > 100 µM | > 100 | 6.86 µM | > 100 | 22.9 µM | 3.22 | 2.4 | 2.3 | 2.25 | 2.39 | 3.45 | 3.67 | 1.91 | 3.9 | 3 |
| CCNC(=O)O[C@H]1CN[C@H](C#Cc2cc3ncnc(Nc4ccc(OCc5cccc(F)c5)c(Cl)c4)c3s2)C1 | 15.5 | > 25 µM | > 19.4 | > 25 | > 25 µM | > 25 µM | > 25 | > 25 µM | > 25 | > 25 µM | 4.91 | 9.83 | 5.71 | 9.47 | 4.58 | 9.94 | 6 | 6.99 | > 22.7 | 17 |
| O=C1C(=O)c2cccnc2-c2ncccc21 | 2.92 | 1.42 µM | 0.443 | 2.33 | 0.509 µM | 0.268 µM | 1.01 | 1.08 µM | 0.924 | 0.514 µM | 1.32 | 0.185 | 0.18 | 1.04 | 0.171 | 0.139 | 0.224 | 0.0875 | 0.268 | 0.201 |
| O=C1C(Cl)=C(NCc2ccco2)C(=O)c2ccccc21 | 50.8 | 56.5 µM | > 76.9 | > 100 | > 100 µM | 19.2 µM | 81.9 | > 100 µM | 40 | 13.6 µM | 21.7 | 4.77 | 7.63 | 6.14 | 52.1 | 6.91 | 22.5 | 20.6 | 7.81 | 3.98 |
| C=C1CC2(OC1=O)C(=O)Nc1ccccc12 (stereo not given) | 23.2 | 3.69 µM | 3.85 | 11 | 5.98 µM | 3.37 µM | 26 | 6.03 µM | 4.24 | 6.76 µM | 9.35 | 1.51 | 1.73 | 3.03 | 2 | 1.5 | 6.72 | 1.32 | 1.74 | 2.23 |
| O=C1c2ccccc2S(=O)(=O)c2cc(-c3nn[nH]n3)ccc21 | > 100 | > 100 µM | > 100 | > 100 | > 100 µM | > 100 µM | > 100 | > 100 µM | > 100 | > 100 µM |  |  |  |  |  |  |  |  |  |  |
